We go through 2 molecules from patent publication US20230226049A1, “ACALABRUTINIB MALEATE DOSAGE FORMS” (Acerta Pharma B.V., priority 2020, published 2023).

Values after ≈ are worked out from the molar mass of the structure shown.

One data set is described as follows: physchem. The settings on record: pH 6, water.
Data set [1] is described as follows: Physicochemical properties of acalabrutinib maleate monohydrate (Table 2).
The nature of data set [2]: Two-stage pH shift dissolution of acalabrutinib salts. In kind it is physicochemical. The settings on record: pH shift method, both starting media; FIGS. 11 and 12. As to the method:
Phosphate, oxalate, and maleate salts of acalabrutinib were evaluated using a two-stage in vitro dissolution method known as a pH shift method. The initial medium was either deionized water or a simulated gastric fluid containing hydrochloric acid and sodium chloride and pH adjusted to 1.8. After the salts were in the initial medium for 30 minutes, the medium was then changed to a FaSSIF-V2 medium by addition of a double strength concentrate to give a final pH of 6.5. The FaSSIF-V2 medium contained a sodium phosphate buffer with sodium chloride, sodium taurocholate, and lecithin. The dissolution testing was conducted using USP dissolution apparatus 2 (paddle) operating at 50 RPM at 37 ± 0.5° C. in 250 mL of medium for first 30 minutes and then in 500 mL of medium post-shift. Samples from the dissolution medium were pulled from the aqueous phase at predetermined time points and assayed by HPLC. FIGS. 2 and 3 show the dissolution profiles of the three salts in the simulated gastric fluid/FaSSIF-V2 media and the deionized water/FaSSIF-V2 media, respectively.
In view of the formulation challenges associated with the physical properties of the phosphate and oxalate salts, the maleate salt was re-tested in the previously described pH shift dissolution method after undergoing particle size reduction. […]

Description for physchem: In addition, the solubility of acalabrutinib maleate was measured in buffered solutions representative of the media used for dissolution of acalabrutinib maleate tablets.

By solubility is commonly meant the concentration that dissolves in the medium under given conditions. In general, pKa refers to the negative logarithm of the acid dissociation constant. A lower pKa goes with a stronger acid or weaker base. As to `CC#CC(=O)N1CCC[C@H]1c1nc(-c2ccc(C(=O)Nc3ccccn3)cc2)c2c(N)nccn12` [acalabrutinib free base, 4-{8-amino-3-[(2S)-1-(but-2-ynoyl)pyrrolidin-2-yl]imidazo[1,5-a]pyrazin-1-yl}-N-(pyridin-2-yl)benzamide], the solubility in the data set “physchem” was less than 100 µg/mL; in data set [1] (aqueous buffer, @ pH 8 Free Base, read-out: Intrinsic solubility), 48 µg/mL (≈ 103 µM). This molecule also yielded a pKa in data set [1] (acidic) of 12.1.
Turning to `CC#CC(=O)N1CCC[C@H]1c1nc(-c2ccc(C(=O)Nc3ccccn3)cc2)c2c(N)nccn12.O=C(O)/C=C\C(=O)O` [micronized maleate salt], in data set [2], the “Dissolution profile relative to unmilled maleate salt” value is recorded as “significantly improved”.
